Assay results: the NIST ThermoML archive (doi:10.1021/je700260f)
± gives the expanded uncertainty stated by the source.

Conditions: Liquid, Vibrating tube method

FC(C(F)(F)F)C(F)(F)F [1,1,1,2,3,3,3-heptafluoropropane]
Conditions	mass density [kg/m3]
333.13 K, 4181 kPa	1264.9 ± 1.5
333.13 K, 4207 kPa	1265.2 ± 1.5
333.13 K, 4241 kPa	1265.8 ± 1.5
333.13 K, 4278 kPa	1266.2 ± 1.5
333.13 K, 4309 kPa	1266.6 ± 1.5
333.13 K, 4338 kPa	1266.8 ± 1.5
333.13 K, 4364 kPa	1267.4 ± 1.5
333.13 K, 4398 kPa	1267.7 ± 1.5
333.13 K, 4432 kPa	1268.2 ± 1.5
333.13 K, 4463 kPa	1268.6 ± 1.5
333.13 K, 4762 kPa	1272.2 ± 1.5
333.13 K, 4802 kPa	1272.8 ± 1.5
333.13 K, 4834 kPa	1273.3 ± 1.5
333.13 K, 4861 kPa	1273.7 ± 1.5
333.13 K, 4893 kPa	1274.1 ± 1.5
333.13 K, 4916 kPa	1274.2 ± 1.5
333.13 K, 4947 kPa	1274.6 ± 1.5
333.13 K, 4988 kPa	1275.2 ± 1.5
333.13 K, 5015 kPa	1275.4 ± 1.5
333.13 K, 5055 kPa	1275.9 ± 1.5
333.13 K, 5086 kPa	1276.3 ± 1.5
333.13 K, 5123 kPa	1276.9 ± 1.5
333.13 K, 5155 kPa	1277.2 ± 1.5
333.13 K, 5191 kPa	1277.7 ± 1.5
333.13 K, 5224 kPa	1277.9 ± 1.5
333.13 K, 5261 kPa	1278.4 ± 1.5
333.13 K, 5294 kPa	1278.8 ± 1.5
333.13 K, 5325 kPa	1279.1 ± 1.5
333.13 K, 5365 kPa	1279.6 ± 1.5
333.13 K, 5432 kPa	1280.3 ± 1.5
333.13 K, 5541 kPa	1281.7 ± 1.5
333.13 K, 5612 kPa	1282.4 ± 1.5
333.13 K, 5635 kPa	1282.8 ± 1.5
333.13 K, 5673 kPa	1283.2 ± 1.5
333.13 K, 25651 kPa	1419.9 ± 1.6
333.13 K, 25679 kPa	1419.9 ± 1.6
333.13 K, 25788 kPa	1420.5 ± 1.6
333.13 K, 27375 kPa	1427.5 ± 1.6
333.13 K, 27408 kPa	1427.7 ± 1.6
333.13 K, 27436 kPa	1427.8 ± 1.6
333.13 K, 33941 kPa	1454.3 ± 1.7
333.13 K, 33977 kPa	1454.4 ± 1.7
333.13 K, 34019 kPa	1454.5 ± 1.7
333.13 K, 34054 kPa	1454.8 ± 1.7
333.13 K, 34100 kPa	1454.9 ± 1.7
333.13 K, 34136 kPa	1455 ± 1.7
333.14 K, 1234 kPa	1218 ± 1.5
333.14 K, 1254 kPa	1218.5 ± 1.5
333.14 K, 1281 kPa	1218.9 ± 1.5
333.14 K, 1309 kPa	1219.4 ± 1.5
333.14 K, 1332 kPa	1220.1 ± 1.5
333.14 K, 1355 kPa	1220.5 ± 1.5
333.14 K, 1386 kPa	1221.1 ± 1.5
333.14 K, 1403 kPa	1221.3 ± 1.5
333.14 K, 1427 kPa	1221.8 ± 1.5
333.14 K, 1448 kPa	1222.1 ± 1.5
333.14 K, 1472 kPa	1222.6 ± 1.5
333.14 K, 1496 kPa	1223.2 ± 1.5
333.14 K, 1520 kPa	1223.5 ± 1.5
333.14 K, 1540 kPa	1223.9 ± 1.5
333.14 K, 1568 kPa	1224.4 ± 1.5
333.14 K, 1593 kPa	1224.9 ± 1.5
333.14 K, 1614 kPa	1225.4 ± 1.5
333.14 K, 2164 kPa	1235.1 ± 1.5
333.14 K, 2189 kPa	1235.5 ± 1.5
333.14 K, 2224 kPa	1236.1 ± 1.5
333.14 K, 2254 kPa	1236.5 ± 1.5
333.14 K, 2277 kPa	1237 ± 1.5
333.14 K, 2308 kPa	1237.5 ± 1.5
333.14 K, 2330 kPa	1237.9 ± 1.5
333.14 K, 2385 kPa	1238.7 ± 1.5
333.14 K, 2413 kPa	1239.2 ± 1.5
333.14 K, 2434 kPa	1239.4 ± 1.5
333.14 K, 2460 kPa	1240 ± 1.5
333.14 K, 2489 kPa	1240.4 ± 1.5
333.14 K, 2516 kPa	1240.8 ± 1.5
333.14 K, 2546 kPa	1241.2 ± 1.5
333.14 K, 2576 kPa	1241.8 ± 1.5
333.14 K, 2634 kPa	1242.8 ± 1.5
333.14 K, 2657 kPa	1243.2 ± 1.5
333.14 K, 2684 kPa	1243.6 ± 1.5
333.14 K, 2716 kPa	1244.1 ± 1.5
333.14 K, 2981 kPa	1248.1 ± 1.5
333.14 K, 3011 kPa	1248.6 ± 1.5
333.14 K, 3038 kPa	1249 ± 1.5
333.14 K, 3071 kPa	1249.5 ± 1.5
333.14 K, 3107 kPa	1249.9 ± 1.5
333.14 K, 3140 kPa	1250.4 ± 1.5
333.14 K, 3169 kPa	1251 ± 1.5
333.14 K, 3205 kPa	1251.4 ± 1.5
333.14 K, 4501 kPa	1269.1 ± 1.5
333.14 K, 4531 kPa	1269.4 ± 1.5
333.14 K, 4566 kPa	1269.9 ± 1.5
333.14 K, 4601 kPa	1270.4 ± 1.5
333.14 K, 4623 kPa	1270.6 ± 1.5
333.14 K, 4661 kPa	1271 ± 1.5
333.14 K, 4697 kPa	1271.7 ± 1.5
333.14 K, 4727 kPa	1272 ± 1.5
333.14 K, 5403 kPa	1280.1 ± 1.5
333.14 K, 5469 kPa	1280.8 ± 1.5
333.14 K, 5503 kPa	1281.2 ± 1.5
333.14 K, 5584 kPa	1282.2 ± 1.5
333.14 K, 5709 kPa	1283.6 ± 1.5
333.14 K, 5750 kPa	1283.9 ± 1.5
333.14 K, 5782 kPa	1284.4 ± 1.5
333.14 K, 5815 kPa	1284.8 ± 1.5
333.14 K, 5845 kPa	1285.1 ± 1.5
333.14 K, 5879 kPa	1285.5 ± 1.5
333.14 K, 5908 kPa	1285.8 ± 1.5
333.14 K, 5941 kPa	1286.1 ± 1.5
333.14 K, 5970 kPa	1286.4 ± 1.5
333.14 K, 6009 kPa	1287 ± 1.5
333.14 K, 6052 kPa	1287.3 ± 1.5
333.14 K, 6090 kPa	1287.8 ± 1.5
333.14 K, 6133 kPa	1288.1 ± 1.5
333.14 K, 6158 kPa	1288.5 ± 1.5
333.14 K, 6191 kPa	1289 ± 1.5
333.14 K, 6216 kPa	1289.2 ± 1.5
333.14 K, 6250 kPa	1289.5 ± 1.5
333.14 K, 6472 kPa	1291.9 ± 1.5
333.14 K, 6498 kPa	1292.3 ± 1.5
333.14 K, 6533 kPa	1292.6 ± 1.5
333.14 K, 6555 kPa	1292.7 ± 1.5
333.14 K, 6594 kPa	1293.3 ± 1.5
333.14 K, 6633 kPa	1293.6 ± 1.5
333.14 K, 6668 kPa	1293.9 ± 1.5
333.14 K, 6702 kPa	1294.2 ± 1.5
333.14 K, 6728 kPa	1294.7 ± 1.5
333.14 K, 6758 kPa	1295 ± 1.5
333.14 K, 6922 kPa	1296.7 ± 1.5
333.14 K, 7050 kPa	1297.8 ± 1.5
333.14 K, 7081 kPa	1298.2 ± 1.5
333.14 K, 7125 kPa	1298.6 ± 1.5
333.14 K, 7151 kPa	1299 ± 1.5
333.14 K, 7182 kPa	1299.2 ± 1.5
333.14 K, 7209 kPa	1299.5 ± 1.5
333.14 K, 7243 kPa	1299.9 ± 1.5
333.14 K, 7278 kPa	1300.2 ± 1.5
333.14 K, 7311 kPa	1300.4 ± 1.5
333.14 K, 7341 kPa	1300.7 ± 1.5
333.14 K, 7368 kPa	1301.1 ± 1.5
333.14 K, 7402 kPa	1301.4 ± 1.5
333.14 K, 7424 kPa	1301.7 ± 1.5
333.14 K, 7460 kPa	1302.1 ± 1.5
333.14 K, 7496 kPa	1302.4 ± 1.5
333.14 K, 7527 kPa	1302.6 ± 1.5
333.14 K, 7559 kPa	1303 ± 1.5
333.14 K, 7590 kPa	1303.3 ± 1.5
333.14 K, 7632 kPa	1303.7 ± 1.5
333.14 K, 7670 kPa	1304.1 ± 1.5
333.14 K, 7702 kPa	1304.3 ± 1.5
333.14 K, 7735 kPa	1304.7 ± 1.5
333.14 K, 7767 kPa	1305.1 ± 1.5
333.14 K, 7795 kPa	1305.2 ± 1.5
333.14 K, 7826 kPa	1305.5 ± 1.5
333.14 K, 7864 kPa	1305.9 ± 1.5
333.14 K, 7893 kPa	1306.1 ± 1.5
333.14 K, 7930 kPa	1306.5 ± 1.5
333.14 K, 7957 kPa	1306.8 ± 1.5
333.14 K, 7996 kPa	1307.2 ± 1.5
333.14 K, 8029 kPa	1307.4 ± 1.5
333.14 K, 8057 kPa	1307.7 ± 1.5
333.14 K, 8080 kPa	1307.9 ± 1.5
333.14 K, 25452 kPa	1419 ± 1.6
333.14 K, 25486 kPa	1419 ± 1.6
333.14 K, 25524 kPa	1419.3 ± 1.6
333.14 K, 25553 kPa	1419.5 ± 1.6
333.14 K, 25586 kPa	1419.6 ± 1.6
333.14 K, 25615 kPa	1419.7 ± 1.6
333.14 K, 25704 kPa	1419.9 ± 1.6
333.14 K, 25735 kPa	1420.1 ± 1.6
333.14 K, 25762 kPa	1420.4 ± 1.6
333.14 K, 25814 kPa	1420.7 ± 1.6
333.14 K, 25854 kPa	1420.9 ± 1.6
333.14 K, 25874 kPa	1420.9 ± 1.6
333.14 K, 25917 kPa	1421.1 ± 1.6
333.14 K, 25950 kPa	1421.3 ± 1.6
333.14 K, 25976 kPa	1421.4 ± 1.6
333.14 K, 26005 kPa	1421.5 ± 1.6
333.14 K, 26036 kPa	1421.6 ± 1.6
333.14 K, 26069 kPa	1421.8 ± 1.6
333.14 K, 26295 kPa	1422.8 ± 1.6
333.14 K, 26327 kPa	1422.9 ± 1.6
333.14 K, 26353 kPa	1423.1 ± 1.6
333.14 K, 26386 kPa	1423.1 ± 1.6
333.14 K, 26411 kPa	1423.3 ± 1.6
333.14 K, 26444 kPa	1423.3 ± 1.6
333.14 K, 26469 kPa	1423.6 ± 1.6
333.14 K, 26504 kPa	1423.7 ± 1.6
333.14 K, 27209 kPa	1426.8 ± 1.6
333.14 K, 27239 kPa	1427 ± 1.6
333.14 K, 27284 kPa	1427.1 ± 1.6
333.14 K, 27317 kPa	1427.3 ± 1.6
333.14 K, 27346 kPa	1427.5 ± 1.6
333.14 K, 27465 kPa	1428 ± 1.6
333.14 K, 27494 kPa	1428 ± 1.6
333.14 K, 27531 kPa	1428.3 ± 1.6
333.14 K, 27561 kPa	1428.5 ± 1.6
333.14 K, 27595 kPa	1428.4 ± 1.6
333.14 K, 28013 kPa	1430.3 ± 1.6
333.14 K, 28047 kPa	1430.5 ± 1.6
333.14 K, 28080 kPa	1430.6 ± 1.6
333.14 K, 28109 kPa	1430.9 ± 1.6
333.14 K, 28138 kPa	1430.9 ± 1.6
333.14 K, 28167 kPa	1431 ± 1.6
333.14 K, 28201 kPa	1431.2 ± 1.6
